{
  "source": "patent EP4473972A1",
  "about": "“COMBINATIONS COMPRISING AN ATR INHIBITOR WITH SYNERGISTIC EFFECT AGAINST GLIOMAS” (Eberhard-Karls-Universität Tübingen, priority 2023, dated 2024)",
  "key": {"[1]": {"system": "LNZ308 cells", "test": "Clonogenic survival assay", "assay_type": "cell-based, human", "settings": "treated 24 h in serum-free medium", "procedure": "(§1) Cells were seeded the day before treatment. The inventors treated the cells in the indicated concentrations in serum-free medium for 24 h after which they changed the medium back to medium containing FCS, followed by a 7 to 21 day incubation time. The inventors used crystal violet (0.5% w/v) to stain colonies and analyzed the area coverage using the ImageJ software Plugln ColonyArea. Measurements were normalized to respective vehicle control wells."}, "[2]": {"system": "LN229 cells", "test": "Clonogenic survival assay", "assay_type": "cell-based, human", "settings": "treated 24 h in serum-free medium", "procedure": "as §1"}, "[3]": {"system": "GL261 cells", "test": "Cell cycle analysis (propidium iodide flow cytometry)", "assay_type": "cell-based, murine", "settings": "72 h", "procedure": "(§2) The inventors seeded the cells on day one and treated them on the next day. After 72 h, they detached the cells and stained them with propidium iodide solution (50 µg/mL propidium iodide (Thermo Fisher Scientific, Waltham, MA, US), 0.2% Triton X-100 (Roth, Karlsruhe, Germany), 100 µg RNase (Thermo Fisher Scientific, Waltham, MA, US), 1 g/L glucose in PBS (phosphate buffered saline) (Gibco, Carlsbad, CA, US). Flow cytometry was done using a MACSQuant Analyzer 10 (Miltenyi Biotec, Bergisch Gladbach, Germany). The inventors analyzed the acquired data with the FlowJo software (Beckton, Dickinson & Company, Franklin Lakes, NJ, US)."}, "[4]": {"system": "patient-derived glioblastoma microtumor models (PDM)", "test": "Patient derived microtumors (PDM) viability, RealTime-Glo MT Cell Viability Assay", "assay_type": "cell-based", "settings": "patient-derived microtumors (PDMs), 72 h", "procedure": "PDMs were extracted from surgically resected, residual glioblastoma tissue as is known to the skilled person. The inventors treated the PDMs with indicated drug concentrations for 72 h and determined cell viability using RealTime-Glo MT Cell Viability Assay (Promega, Madison, Wl, US). Luminescence assay signal was measured using a multimode microplate reader (Tecan, Männedorf, Switzerland). Obtained luminescence units were background corrected and plotted as dose response curves using GraphPad Prism 9 software. The use of residual tissue after tumor resections was approved by the ethical board of the University Hospital Tübingen."}, "[5]": {"system": "LNZ308 cells", "test": "Cell cycle analysis (propidium iodide flow cytometry)", "assay_type": "cell-based, human", "settings": "LNZ308, 72 h", "procedure": "as §2"}, "[6]": {"system": "primary cultures (TUE-PC1-6)", "test": "Viability of patient-derived primary cultures", "assay_type": "cell-based", "settings": "six primary cultures (TUE-PC1-6), 72 h", "excerpt": "Primary tumor tissue was obtained from fresh residual material upon resection at the Department of Neurosurgery, University Hospital Tübingen. The inventors cut the tissue in small pieces, washed it using Hanks Balanced Salt Solution (HBSS) (Gibco, Carlsbad, CA, US) and digested it by collagenase and dispase (Roche, Basel, CH). To remove any remaining erythrocytes, they used red blood cell lysis buffer (Sigma Aldrich, St. Louis, MO, US). The inventors then cultured the cells as GS cells in Neurobasal®-A medium. They first evaluated AZD6738 sensitivity of each primary culture and selected two concentrations. […] To evaluate combination treatment analyses, the inventors leveraged the Bliss independence Criterion.\nThe inventors seeded 5,000 or 10,000 cells, respectively, on day one, treated the next day in serum-free medium and incubated for up to 72 h. Subsequently, they measured cell viability using CellTiterBlue reagent (Promega, Madison, WI, US) according to manufacturer's instructions with a GloMax (Promega, Madison, Wl, US). The inventors normalized measurements to untreated cells."}, "[7]": {"system": "human and murine cell lines", "test": "Anti-glioma activity in vitro (Figure 1 b)", "assay_type": "cell-based", "procedure": "as §1, with “The inventors seeded 5,000 or 10,000 cells, respectively, on day one, treated the next day in serum-free medium and incubated for up to 72 h. Subsequently, they measured cell viability using CellTiterBlue reagent (Promega, Madison, WI, US) according to manufacturer's instructions with a GloMax (Promega, Madison, Wl, US). The inventors normalized measurements to untreated cells. Cells” for “Cells”"}, "[8]": {"system": "LN229-GFP cells", "test": "Zebrafish embryo xenotransplant, tumor area", "assay_type": "in vivo, wildtype zebrafish embryos", "settings": "monotherapy, 48 h of treatment; not significant as compared to the DMSO control", "procedure": "The inventors used zebrafish wildtype (wt) TE embryos younger than 5 days post-fertilization (dpf). […] Labelled cells were suspended in PBS at 2*10^5 cells/µL and approx. 1 nL cell suspension was injected into the midbrain region of 24 hpf embryos. The inventors incubated the embryos at 28°C for 1 h and afterwards divided them into treatment groups. Only successfully transplanted embryos were used for further experiments. Then, the inventors applied the treatments as indicated in the respective figures and incubated that for 48 h at 35°C. For evaluation of tumor size, they imaged embryos on a Nikon Stereomicroscope (SMZ18) with the NIS Element software. The inventors assessed the tumor surface areas using Imaris (version 9.2.0)."}},
  "data": [
    {"smiles": "C[C@@H]1COCCN1c1cc(C2([S@](C)(=N)=O)CC2)nc(-c2cc[nH]c3nccc2-3)n1", "note": "[AZD6738, ceralasertib]", "values": [
      {"measurement": "clonogenic survival", "setting": "[1]", "result": "dose-dependent reduction"},
      {"measurement": "clonogenic survival", "setting": "[2]", "result": "dose-dependent reduction"},
      {"measurement": "cell cycle alterations", "setting": "[3]", "result": "accumulation in S phase"},
      {"measurement": "cell viability", "setting": "[4]", "result": "dose-dependent reduction"},
      {"measurement": "cell cycle alterations", "setting": "[5]", "result": "accumulation of LNZ308 cells in G2-M phase"},
      {"measurement": "cell viability", "setting": "[6]", "result": "dose-dependent reduction"},
      {"measurement": "anti-glioma activity in vitro", "setting": "[7]", "result": "significant anti-glioma activity"},
      {"measurement": "tumor area", "setting": "[8]", "result": "modest decrease"}
    ]}
  ]
}
